Laboratory results published in patent US10538515B2, “Isatin-derived compounds, use of the compounds for the treatment of AIDS and method of treatment using these compounds” (FUNDAÇÄO OSWALDO CRUZ, priority 2016, dated 2020).
Read-outs that look alike come from different tables or passages of the source.

Legend:
[1] = test system: Suptl cells (T-lymphocyte cell line); experiment: Cytotoxicity assay (MTT); assay type: cell-based; conditions: 50% cytotoxic concentration, 72 hours, MTT; read-out: CC50
Description: (§1) The T-lymphocyte cell line (Suptl) was cultured in an RPMI 1640 medium (GIBICO). The cultures were supplemented with 10% Fetal Bovine Serum (SFB; HyClone, Logan, Utah, USA), 100 U/mL of penicillin and […] of streptomycin, and incubated at 37° C., in an atmosphere of 5% CO2. Virus stocks were prepared using the methodology described by Souza and Denizot (SOUZA, T. M. L; RODRIGUES, D. Q.; […], V. F.; MARQUES, I. P.; DE SOUZA, M. C. B. V.; […], I. C. P. P.; BOU-HABIB, D. C; FONTES, C. F. L. Characterization of HIV-1 enzyme reverse transcriptase inhibition by the compound 6-chloro-1.4-dihydro-4-oxo-1-(β-D-ribofuranosyl) quinoline-3-carboxylic acid through kinetic and in silico studies. Current HIV Research, v. 7, No 3, page 327-335, 2009. DENIZOT, F.; LANG, R. Rapid colorimetric assay for cell growth and survival. Modifications to the tetrazolium dye procedure giving improved sensitivity and reliability. The Journal of Immunological Methods, v. 89, No 2, page 271-277, 1986).
(§2) . They were then run through an MTT assay (3-(4,5-dimethylazol-2-yl)-2.5-diphenyl tetrazolium bromide) in order to analyze cell induction infeasibility. MTT is a colorimetric method that measures mitochondrial dehydrogenase activity based on the ability of live cells to reduce 3-(4,5-methylazol-2-yl)-2.5-diphenyl tetrazolium bromide salt in the product. A […] solution of 3-(4,5-dimethylthiazol-2-yl)-2.5-diphenyl tetrazolium bromide (1 mg/ml) (MTT, Sigma) was thus added to the cells, kept in Dulbecco's Modified Eagle's medium (DMEM) without serum. The MTT was removed after three hours and, after adding […] of isopropanol acid (0.04N HCl in isopropanol), the optical density (OD) was determined using a wavelength range of 570 to 690 nm, according to KUO et al (KUO, Y. C; CHEN, C. C; TSA, W. J.; HO, Y. H. Regulation of type 1 herpes simplex virus replication in vero cells by Psychotriaserpens: relationship to gene expression, DNA replication, and protein synthesis. Antiviral Research, v. 51, No 2, pages 95 to 109, 2001). The dye coloring has different optical densities, depending on mitochondrial metabolism after treating cells with different concentrations of the new derivatives or the absence thereof. The 50% cytotoxic concentration (CC50) was calculated through linear regression analysis from the dose-response curve obtained from experimental data.

[2] = biological target: T1, recombinant HIV-1 reverse transcriptase (RTHXB2) (Human immunodeficiency virus type 1 group M subtype B, UniProt P04585); experiment: Reverse transcriptase inhibition activity (RDDP, [3H]dTTP incorporation); assay type: biochemical; conditions: for IS: CC50 / CI50
T1 construct: The enzyme is derived from a polyprotein encoded by the virus, processed by the viral protease
Description: Reverse Transcriptase Inhibition Activity
The RDDP activity was determined in 50 mM Tris HCl (pH 7.8), 6 mM MgCl2, 1 mM dithiothreitol, 50 mM KCl, 5 μM dTTP, […] poly (rA) oligo (dT) template primer (Pharmacia, Piscataway, N.J., USA) and 3 U of enzyme (one unit is the enzyme concentration incorporating dTTP […] per minute per mg of enzyme at 37° C. under standard conditions). The reaction isotope dilutions were prepared at 2 μCi of [3H] dTTP (49 Ci/mmol)/2,7μ dTTP. The reaction was initiated at 37° C., incubated for 30 minutes and halted with 0.5M EDTA. The precipitate was collected on Whatman 81 filter paper and washed with 0.1 M sodium phosphate. The incorporated nucleotides were measured by liquid scintillation. The 50% inhibitory concentration (Ciso) was determined by linear regression analysis of the dose-response curve obtained from experimental data. The polymerization reaction was conducted in the presence and absence of test substances, as well as the presence and absence of standards.
All tests were conducted on three separate occasions. At least three independent experiments were performed and triplicates were run for each concentration.

[3] = Cytotoxicity assay (MTT); assay type: cell-based; conditions: human
Description: as §1, §2

[4] = 50% inhibitory concentration, mean of three independent experiments, read-out: CI50 (the source's name)
[5] = 50% cytotoxic concentration, 72 hours, MTT, read-out: CC50
[6] = Suptl cells (T-lymphocyte cell line), 50% cytotoxic concentration, 72 hours, MTT, read-out: CC50

Compound	IC50 [2]	CC50 at 72 h [3, 6]	IS [2]	other results
Cc1ccc2c(c1)C(F)(F)C(=O)N2Cc1cn(C2CC(n3cc(C)c(=O)[nH]c3=O)OC2CO)nn1 (stereo not shown) [IIIb, 1-(4-(4-((3,3-difluor-5-methyl-2-oxoindolin-1-yl)methyl)-1H-1,2,3-triazole-1-yl)-5-(hydroxymethyl)tetrahydrofuran-2-yl)-5-methylpyrimidine-2.4(1H,3H)-dione]				CC50 [1]: > 0.1 mM; IC50 [2, 4]: 3200 nM
CCOP(=O)(Cn1cc(CN2C(=O)C(O)(C#CC3CC3)c3cc(C)ccc32)nn1)OCC (stereo not shown) [IIe, diethyl ((4-((3-(cyclopropylethanol)-3-hydroxy-5-methyl-2-oxoindolin-1-yl)methyl-1,2,3-triazole-1-yl)methyl) phosphonate]	1800 nM			CC50 at 72 h [3, 5]: > 100 µM
O=C1Nc2ccc(Cl)cc2[C@@](C#CC2CC2)(C(F)(F)F)O1 [Efavirenz, reference compound]		88 µM		
CCOP(=O)(Cn1cc(CN2C(=O)C(F)(F)c3cc(Cl)ccc32)nn1)OCC [IIIf, diethyl ((4-((5-chloro-3.3-difluor-2-oxoindolin-1-yl)methyl)-1H-1,2,3-triazole-1-yl)methyl) phosphonate]			2106	CC50 [1]: 1.9 mM; RT enzyme inhibition activity compared with benchmarks (in words) [2]: more active than the nevirapine and tenofovir benchmarks; IC50 [2, 4]: 900 nM
Cc1ccc2c(c1)C(O)(C#CC1CC1)C(=O)N2Cc1cn(C2CC(n3cc(C)c(=O)[nH]c3=O)OC2CO)nn1 (stereo not shown) [IIb, 1-(4-(4-((3-(cyclopropylethanol)-3-hydroxy-5-methyl-2-oxoindolin-1-yl)methyl)-1H-1,2,3-triazole-1-yl)-5-(hydroxymethyl)tetrahydrofuran-2-yl)-5-methylpyrimidine-2.4(1H,3H)-dione]	3300 nM	> 100 µM		
Cc1cn(C2CC(n3cc(CN4C(=O)C(O)(C#CC5CC5)c5ccccc54)nn3)C(CO)O2)c(=O)[nH]c1=O (stereo not shown) [IIa]	2100 nM	> 100 µM		
Cc1ccc2c(c1)C(=O)C(=O)N2Cc1cn(C2CC(n3cc(C)c(=O)[nH]c3=O)OC2CO)nn1 (stereo not shown) [Ib]	1900 nM	> 100 µM		
CCOP(=O)(Cn1cc(CN2C(=O)C(=O)c3ccccc32)nn1)OCC [If, diethyl ((4-((2.3-dioxoindolin-1-yl)methyl)-1H-1,2,3-triazole-1-yl)methyl) phosphonate]	1300 nM		1,782	CC50 at 72 h [3, 5]: 2320 µM
Cc1cn(C2CC(n3cc(CN4C(=O)C(=O)c5ccccc54)nn3)C(CO)O2)c(=O)[nH]c1=O (stereo not shown) [Ia, 1-((1-(2-(hydroxymethyl)-5-(5-methyl-2.4-dioxo-3.4-dihydropyrimidine-1(2H)-yl)tetrahydrofuran-3-yl)-1H-1,2,3-triazole-4-yl)methyl)indolin-2.3-dione]	2500 nM	> 100 µM		
CCOP(=O)(Cn1cc(CN2C(=O)C(F)(F)c3ccccc32)nn1)OCC [IIId, diethyl ((4-((3,3-difluor-2-oxoindolin-1-yl)methyl)-1H-1,2,3-triazole-1-yl)methyl) phosphonate]			1247	CC50 [1]: 1.5 mM; IC50 [2, 4]: 1200 nM
CCOP(=O)(Cn1cc(CN2C(=O)C(O)(C#CC3CC3)c3cc(Cl)ccc32)nn1)OCC (stereo not shown) [IIf, diethyl ((4-((5-chloro-3-(cyclopropylethanol)-3-hydroxy-2-oxoindolin-1-yl)methyl)-1H-1,2,3-triazole-1-yl)methyl) phosphonate]				CC50 [1]: > 0.1 mM; IC50 [2, 4]: 3200 nM
Cc1cn(C2CC(n3cc(CN4C(=O)C(O)(C#CC5CC5)c5cc(Cl)ccc54)nn3)C(CO)O2)c(=O)[nH]c1=O (stereo not shown) [IIc]	3100 nM	> 100 µM		
Cc1cn(C2CC(n3cc(CN4C(=O)C(F)(F)c5cc(Cl)ccc54)nn3)C(CO)O2)c(=O)[nH]c1=O (stereo not shown) [IIIc, 1-(4-(4-((5-chloro-3.3-difluor-2-oxoindolin-1-yl)methyl)-1H-1,2,3-triazole-1-yl)-5-(hydroxymethyl)tetrahydrofuran-2-yl)-5-methylpyrimidine-2.4(1H,3H)-dione]			1318	CC50 [1]: 1.05 mM; RT enzyme inhibition activity compared with benchmarks (in words) [2]: more active than the nevirapine and tenofovir benchmarks; IC50 [2, 4]: 800 nM
Cc1cn([C@H]2C[C@H](N=[N+]=[N-])[C@@H](CO)O2)c(=O)[nH]c1=O [Zidovudine, reference compound]	10 nM		12,600	CC50 at 72 h [3]: 126 µM
Cc1ccc2c(c1)C(=O)C(=O)N2Cc1cn(-c2ccc(S(=O)(=O)N(CC(C)C)CC(O)C(Cc3ccccc3)NC(=O)OC3CCOC3)cc2)nn1 [Ie, tetrahydrofuran-3-yl ((2S,3R)-3-hydroxy-4-(N-isobutyl-4-(4-((5-methyl-2.3-dioxoindolin-1-yl)methyl)-1H-1,2,3-triazole-1-yl)phenylsulfonamide)-1=phenylbutan-2-yl)carbamate]	900 nM	> 100 µM		RT enzyme inhibition activity compared with benchmarks (in words) [2]: more active than the nevirapine and tenofovir benchmarks
CC(C)CN(CC(O)C(Cc1ccccc1)NC(=O)OC1CCOC1)S(=O)(=O)c1ccc(-n2cc(CN3C(=O)C(=O)c4ccccc43)nn2)cc1 [Id, tetrahydrofuran-3-yl ((2S)3R)-4-(4-(4-((2.3-dioxoindolin-1-yl)methyl)-1H-1,2,3-triazole-1-yl)-N-isobutylphenylsulfonamide)-3-hydroxy-1-phenylbutan-2-yl) carbamate]	1500 nM	> 100 µM		
CCOP(=O)(Cn1cc(CN2C(=O)C(O)(C#CC3CC3)c3ccccc32)nn1)OCC (stereo not shown) [IId]	3500 nM			CC50 at 72 h [3, 5]: > 100 µM
Cc1cn(C2CC(n3cc(CN4C(=O)C(=O)c5cc(Cl)ccc54)nn3)C(CO)O2)c(=O)[nH]c1=O (stereo not shown) [Ic, 5-chloro-1-((1-(2-(hydroxymethyl)-5-(5-methyl-2.4-dioxo-3.4-dihydropyrimidine-1(2H)-yl)tetrahydrofuran-3-yl)-1H-1,2,3-triazole-4-yl)methyl)indolin-2.3-dione]	1900 nM	> 100 µM		
Cc1cn(C2CC(n3cc(CN4C(=O)C(F)(F)c5ccccc54)nn3)C(CO)O2)c(=O)[nH]c1=O (stereo not shown) [IIIa, 1-(4-(4-((3,3-difluor-2-oxoindolin-1-yl)methyl)-1H-1,2,3-triazole-1-yl)-5-(hydroxymethyl)tetrahydrofuran-2-yl)-5-methylpyrimidine-2.4(1H,3H)-dione]			1392	CC50 [1]: 0.835 mM; RT enzyme inhibition activity compared with benchmarks (in words) [2]: more active than the nevirapine and tenofovir benchmarks; IC50 [2, 4]: 600 nM
CCOP(=O)(Cn1cc(CN2C(=O)C(=O)c3cc(C)ccc32)nn1)OCC [Ig, diethyl ((4-((5-methyl-2.3-dioxoindolin-1-yl)methyl)-1H-1,2,3-triazole-1-yl)methyl) phosphonate]	700 nM		2,940	CC50 at 72 h [3, 5]: 2060 µM; RT enzyme inhibition activity compared with benchmarks (in words) [2]: more active than the nevirapine and tenofovir benchmarks
Cc1ccnc2c1NC(=O)c1cccnc1N2C1CC1 [Nevirapine, reference compound]		895 µM	746	
CCOP(=O)(Cn1cc(CN2C(=O)C(=O)c3cc(Cl)ccc32)nn1)OCC [Ih, diethyl ((4-((5-chloro-2.3-dioxoindolin-1-yl)methyl)-1H-1,2,3-triazole-1-yl)methyl) phosphonate]	1200 nM			CC50 at 72 h [3, 5]: > 100 µM
